In patent publication US20100105657A1, “Compounds, Process for their Preparation, Intermediates, Pharmaceutical Compositions and their use in the Treatment of 5-HT6 Mediated Disorders such as Alzheimer's Disease, Cognitive Disorders, Cognitive Impairment Associated with Schizophrenia, Obesity and Parkinson's Disease” (AstraZeneca AB, priority 2005, published 2010):

Target: T1, Rat Striatal 5-HT6 Receptors (Rattus norvegicus, UniProt P31388)
T1 construct: Striatal tissue from adult rats (Sprague-Dawley, 320-370 g, B & K Sweden) were dissected out, weighed and homogenized; from tissue; host or cells: rat striatum (Sprague-Dawley) membranes
T1 sequence (P31388 whole entry): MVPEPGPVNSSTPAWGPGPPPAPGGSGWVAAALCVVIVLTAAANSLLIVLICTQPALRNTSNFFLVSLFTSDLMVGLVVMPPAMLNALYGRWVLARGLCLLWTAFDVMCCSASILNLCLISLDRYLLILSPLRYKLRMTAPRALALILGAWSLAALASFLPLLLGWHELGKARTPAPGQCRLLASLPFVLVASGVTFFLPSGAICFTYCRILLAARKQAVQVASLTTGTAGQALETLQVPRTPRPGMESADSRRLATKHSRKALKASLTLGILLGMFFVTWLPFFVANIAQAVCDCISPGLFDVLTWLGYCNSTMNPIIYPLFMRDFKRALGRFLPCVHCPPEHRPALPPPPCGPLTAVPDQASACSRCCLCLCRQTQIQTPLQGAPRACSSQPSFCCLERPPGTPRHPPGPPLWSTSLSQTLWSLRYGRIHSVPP
Assay: [125I]SB258585 binding to rat striatal 5-HT6 receptors
Conditions: competition with [125I]SB258585, rat striatal membranes
Protocol: Method for [125I]SB258585 Binding to Rat Striatal 5-HT6 Receptors
[^125I]SB258585 (1) with specific radioactivity 2000 Ci/mmol was purchased from Amersham Biosciences Europe GmbH, Freiburg, Germany. Other chemicals were purchased from commercial sources and were of analytical grade.
Striatal tissue from adult rats (Sprague-Dawley, 320-370 g, B & K Sweden) were dissected out, weighed and homogenized in buffer containing 50 mM Tris-HCl, 4 mM MgCl2, 1 mM EDTA, 10 μM pargyline and protease inhibitor (Complete, Roche Diagnostics) pH 7.4 using an Ultra-Turrax T8 (IKA Labortechnik, Germany). The tissue homogenate was centrifuged at 48 000×g for 10 min and the pellet was resuspended and recentrifuged as above. […]
Saturation binding studies were carried out in duplicate with 1-3 mg w.w. per tube in 0.5 ml buffer (50 mM Tris, 4 mM MgCl2, 100 mM NaCl, 1 mM EDTA, 5 mM ascorbate and 10 μM pargyline at pH 7.4), 0.2 nM [^125I]SB258585 and unlabelled SB258585 to give a final concentration range of 0.23-20 nM (12 conc.). Non-specific binding was determined in the presence of 10 μM methiothepin. […] The radioactivity was determined in a Packard Tri-Carb 2900TR liquid scintillation counter. Data were analyzed by non-linear regression analyses using PRISM 4.00 (GraphPad Software Inc., San Diego, Calif.). […]

Structure (SMILES)	Ki [nM]
O=S(=O)(Nc1ccc2c(c1)CNCCC2)c1csc(C(F)(F)F)c1-c1ccccc1 [Example 39, 4-phenyl-N-(2,3,4,5-tetrahydro-1H-2-benzazepin-8-yl)-5-(trifluoromethyl)thiophene-3-sulfonamide]	32 ± 14
CN1CCOc2ccc(NS(=O)(=O)c3cccc(Cl)c3Cl)cc2C1 [Example 6, 2,3-dichloro-N-(4-methyl-2,3,4,5-tetrahydro-1,4-benzoxazepin-7-yl)benzenesulfonamide]	31 ± 9
